Test results from patent US20240059703A1 (AMGEN INC., priority 2021, published 2024).

Tests used:
[1] = system: MIA PaCa-2 (human pancreatic carcinoma) cells; assay: Cell Viability Assay (CellTiter-Glo), MIA PaCa-2; assay type: cell-based; settings: Homo sapiens, MIA PaCa-2, 72 h
Experimental: Serially-diluted compound or DMSO was added to the cells, and plates were incubated at 37° C., 5% CO2 for 72 h. Cell viability was measured using a CellTiter-Glo® Luminescent Cell Viability Assay kit (Promega) according to the manufacturer's protocol. The luminescence signal of treated samples was normalized to DMSO control, and data were analyzed using a 4-parameter logistic model to calculate IC50 values.

KRAS G12C = KRAS G12C (Homo sapiens (Human), UniProt P01116, C118A/G12C); assay: 2 h coupled exchange assay; assay type: biochemical; settings: Avg 2 h Coupled exchange IC50, 2 h compound pre-incubation
Sequence of KRAS G12C (P01116 other isoform, or with tags, fused parts or gaps G12C/C118A): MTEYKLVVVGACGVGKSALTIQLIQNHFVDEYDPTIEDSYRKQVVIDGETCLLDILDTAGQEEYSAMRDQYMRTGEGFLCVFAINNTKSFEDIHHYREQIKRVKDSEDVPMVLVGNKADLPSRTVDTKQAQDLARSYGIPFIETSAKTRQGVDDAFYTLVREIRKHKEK
Experimental: The term “2 h coupled exchange assay” or “20 h coupled exchange assay” as used herein refers to the assay described in the Section entitled “BIOLOGICAL EVALUATION.”

[2] = system: A549 (human lung carcinoma) cells; assay: Cell Viability Assay (CellTiter-Glo), A549; assay type: cell-based; settings: Homo sapiens, A549, 72 h
Procedure, shortened: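 MIA PaCa-2 or A549 cells in RPMI 1640 with 10% FBS were seeded at 1.67E+04 cells/mL and incubated overnight. Serially diluted compound was then added for 72 h at 37° C, 5% CO2. Viability read by CellTiter-Glo luminescence, normalized to DMSO, with IC50 from a 4-parameter logistic fit.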

[3] = SOS-mediated nucleotide exchange

Compound	IC50 [1] [nM]	IC50 (KRAS G12C; [3]) [nM]	IC50 [2] [nM]	IC50 (KRAS G12C) [nM]
C=CC(=O)N1CC2(CCN(c3nc4c(c(-c5c(C)ccc6cnn(C)c56)c3C#N)CCC3CC43)C2)C1 [Example 13-116, (6aR,7aS)-4-(1,6-dimethyl-1H-indazol-7-yl)-2-(2-(2-propenoyl)-2,6-diazaspiro[3.4]octan-6-yl)-6,6a,7,7a-tetrahydro-5H-cyclopropa[h]quinoline-3-carbonitrile|(6aS,7aR)-4-(1,6-dimethyl-1H-indazol-7-yl)-2-(2-(2-propenoyl)-2,6-diazaspiro[3.4]octan-6-yl)-6,6a,7,7a-tetrahydro-5H-cyclopropa[h]quinoline-3-carbonitrile]	775	30	> 5000	
C=CC(=O)N1CC2(CCN(c3nc4c(c(-c5c(C)ccc6cnn(C)c56)c3C#N)CCC(C)(C)C4)C2)C1 [Example 13-143, 4-(1,6-dimethyl-1H-indazol-7-yl)-7,7-dimethyl-2-(2-(2-propenoyl)-2,6-diazaspiro[3.4]octan-6-yl)-5,6,7,8-tetrahydro-3-quinolinecarbonitrile]	602	33	> 5000	
C=CC(=O)N1CC2(CCN(c3nc4c(c(-c5c(Cl)ccc6[nH]ncc56)c3C#N)CCC(C)(C)C4)C2)C1 [Example 13-144, 4-(5-chloro-1H-indazol-4-yl)-7,7-dimethyl-2-(2-(2-propenoyl)-2,6-diazaspiro[3.4]octan-6-yl)-5,6,7,8-tetrahydro-3-quinolinecarbonitrile]	172	41	3800	
C=CC(=O)N1CC2(CCN(c3nc4c(c(-c5c(C)cc(F)c6[nH]ncc56)c3C#N)CCC(C)(C)C4)C2)C1 [Example 13-146, 4-(7-fluoro-5-methyl-1H-indazol-4-yl)-7,7-dimethyl-2-(2-(2-propenoyl)-2,6-diazaspiro[3.4]octan-6-yl)-5,6,7,8-tetrahydro-3-quinolinecarbonitrile]	71	29	> 5000	
C=CC(=O)N1CC2(CCN(c3nc4c(c(-c5c(C)cc(F)c6[nH]ncc56)c3C#N)COC(C)(C)C4)C2)C1 [Example 13-147, 4-(7-fluoro-5-methyl-1H-indazol-4-yl)-7,7-dimethyl-2-(2-(2-propenoyl)-2,6-diazaspiro[3.4]octan-6-yl)-7,8-dihydro-5H-pyrano[4,3-b]pyridine-3-carbonitrile]	176	98	> 5000	
C=CC(=O)N1CC2(CCN(c3nc4c(c(-c5c(Cl)ccc6[nH]ncc56)c3C#N)COC(C)(C)C4)C2)C1 [Example 13-148, 4-(5-chloro-1H-indazol-4-yl)-7,7-dimethyl-2-(2-(2-propenoyl)-2,6-diazaspiro[3.4]octan-6-yl)-7,8-dihydro-5H-pyrano[4,3-b]pyridine-3-carbonitrile]	103	26	> 5000	
C=CC(=O)N1CC2(CCN(c3nc4c(c(-c5c(F)ccc6[nH]ncc56)c3C#N)COC(C)(C)C4)C2)C1 [Example 13-149, 4-(5-fluoro-1H-indazol-4-yl)-7,7-dimethyl-2-(2-(2-propenoyl)-2,6-diazaspiro[3.4]octan-6-yl)-7,8-dihydro-5H-pyrano[4,3-b]pyridine-3-carbonitrile]	616	276	11200	
C=CC(=O)N1CC2(CCN(c3nc4c(c(-c5c(C)cnc6[nH]ncc56)c3C#N)CCC(C)(C)C4)C2)C1 [Example 13-151, 7,7-dimethyl-4-(5-methyl-1H-pyrazolo[3,4-b]pyridin-4-yl)-2-(2-(2-propenoyl)-2,6-diazaspiro[3.4]octan-6-yl)-5,6,7,8-tetrahydro-3-quinolinecarbonitrile]	1190	149	9340	
C=CC(=O)N1CC2(CCN(c3nc4c(c(-c5cccc(C)c5Cl)c3C#N)COC(C)(C)C4)C2)C1 [Example 13-152, 4-(2-chloro-3-methylphenyl)-7,7-dimethyl-2-(2-(2-propenoyl)-2,6-diazaspiro[3.4]octan-6-yl)-7,8-dihydro-5H-pyrano[4,3-b]pyridine-3-carbonitrile]	1930	787	9050	
C=CC(=O)N1CC2(CCN(c3nc4c(c(-c5cc(O)cc(C)c5Cl)c3C#N)COC(C)(C)C4)C2)C1 [Example 13-153, 4-(2-chloro-5-hydroxy-3-methylphenyl)-7,7-dimethyl-2-(2-(2-propenoyl)-2,6-diazaspiro[3.4]octan-6-yl)-7,8-dihydro-5H-pyrano[4,3-b]pyridine-3-carbonitrile]	58	64	> 5000	
C=CC(=O)N1CC2(CCN(c3nc4c(c(-c5c(N)c(Cl)cc(Cl)c5F)c3C#N)COC(C)(C)C4)C2)C1 [Example 13-154, 4-(2-amino-3,5-dichloro-6-fluorophenyl)-7,7-dimethyl-2-(2-(2-propenoyl)-2,6-diazaspiro[3.4]octan-6-yl)-7,8-dihydro-5H-pyrano[4,3-b]pyridine-3-carbonitrile]	776	81	> 5000	
C=CC(=O)N1CC2(CCN(c3nc4c(c(-c5c(N)cccc5F)c3C#N)COC(C)(C)C4)C2)C1 [Example 13-157, 4-(2-amino-6-fluorophenyl)-7,7-dimethyl-2-(2-(2-propenoyl)-2,6-diazaspiro[3.4]octan-6-yl)-7,8-dihydro-5H-pyrano[4,3-b]pyridine-3-carbonitrile]	357	555	16200	
C=CC(=O)N1CC2(CCN(c3nc4ccccc4c(-c4c(C)c(F)cc5[nH]ncc45)c3C#N)C2)C1 [Example 14-2, 4-(6-fluoro-5-methyl-1H-indazol-4-yl)-2-(2-(2-propenoyl)-2,6-diazaspiro[3.4]octan-6-yl)-3-quinolinecarbonitrile]	458	87	> 5000	
C=CC(=O)N1CC2(CCN(c3nc4ccccc4c(-c4c(C)c(Cl)cc5[nH]ncc45)c3C#N)C2)C1 [Example 14-18, 4-(6-chloro-5-methyl-1H-indazol-4-yl)-2-(2-(2-propenoyl)-2,6-diazaspiro[3.4]octan-6-yl)-3-quinolinecarbonitrile]	324		> 5000	43
C=CC(=O)N1CC2(CCN(c3nc4cc(C5CC5)ccc4c(-c4c(C)ccc5[nH]ncc45)c3C#N)C2)C1 [Example 14-19, 7-cyclopropyl-4-(5-methyl-1H-indazol-4-yl)-2-(2-(2-propenoyl)-2,6-diazaspiro[3.4]octan-6-yl)-3-quinolinecarbonitrile]	1690		> 5000	130
C=CC(=O)N1CC2(C1)CN(c1nc3cc(OC)ccc3c(-c3c(C)ccc4[nH]ncc34)c1C#N)CC2(F)F [Example 14-20, 2-(8,8-difluoro-2-(2-propenoyl)-2,6-diazaspiro[3.4]octan-6-yl)-7-methoxy-4-(5-methyl-1H-indazol-4-yl)-3-quinolinecarbonitrile]	2550		> 5000	31
C=CC(=O)N1CC2(CCN(c3nc4cc(OC)ccc4c(-c4c(C)ccc5[nH]ncc45)c3C#N)C2C)C1 [Example 14-21, 7-methoxy-4-(5-methyl-1H-indazol-4-yl)-2-((5R)-5-methyl-2-(2-propenoyl)-2,6-diazaspiro[3.4]octan-6-yl)-3-quinolinecarbonitrile|7-methoxy-4-(5-methyl-1H-indazol-4-yl)-2-((5S)-5-methyl-2-(2-propenoyl)-2,6-diazaspiro[3.4]octan-6-yl)-3-quinolinecarbonitrile]	447		> 5000	111
C=CC(=O)N1CC2(CCN(c3nc4c(c(-c5c(C)ccc6[nH]ncc56)c3C)COC(C)(C)C4)C2)C1 [Example 14-23, 1-(6-(3,7,7-trimethyl-4-(5-methyl-1H-indazol-4-yl)-7,8-dihydro-5H-pyrano[4,3-b]pyridin-2-yl)-2,6-diazaspiro[3.4]octan-2-yl)-2-propen-1-one]	18		> 5000	102
C=CC(=O)N1CC2(CCN(c3nc4c(c(-c5cccc6cn[nH]c56)c3C#N)C[C@H]3C[C@@H]4C3(C)C)C2)C1 [Example 14-25, (1R,9R)-6-(1H-indazol-7-yl)-10,10-dimethyl-4-(2-(2-propenoyl)-2,6-diazaspiro[3.4]octan-6-yl)-3-azatricyclo[7.1.1.0^2,7]undeca-2,4,6-triene-5-carbonitrile]	669		> 5000	110
C=CC(=O)N1CC2(CCN(c3nc4c(c(-c5cc(O)cc6ccccc56)c3C)COC(C)(C)C4)C2)C1 [Example 14-26, 1-(6-(4-(3-hydroxy-1-naphthalenyl)-3,7,7-trimethyl-7,8-dihydro-5H-pyrano[4,3-b]pyridin-2-yl)-2,6-diazaspiro[3.4]octan-2-yl)-2-propen-1-one]	76		> 5000	67
C=CC(=O)N1CC2(CCN(c3nc4c(c(-c5c(C)c(C)cc6cnn(C)c56)c3C)COC(C)(C)C4)C2)C1 [Example 14-40, 1-(6-(3,7,7-trimethyl-4-(1,5,6-trimethyl-1H-indazol-7-yl)-7,8-dihydro-5H-pyrano[4,3-b]pyridin-2-yl)-2,6-diazaspiro[3.4]octan-2-yl)-2-propen-1-one]	502		> 5000	110
